Assay results taken from PMC12621043, “Un-LOK-ing a New Approach for Conformational Selective Targeting of STK10 (LOK)” (ACS Medicinal Chemistry Letters, 2025).

Tests used:
Test in all cases: DSF Tm panel
Assay type in all cases: binding
Conditions in all cases: 10 μM compound
[1] = target: T1, BMPR2A (Homo sapiens, UniProt Q13873)
T1 construct: purchased in-house DSF kinase panel (SGC-style construct names; the trailing letter is the construct ID)
T1 sequence (Q13873 27-1038): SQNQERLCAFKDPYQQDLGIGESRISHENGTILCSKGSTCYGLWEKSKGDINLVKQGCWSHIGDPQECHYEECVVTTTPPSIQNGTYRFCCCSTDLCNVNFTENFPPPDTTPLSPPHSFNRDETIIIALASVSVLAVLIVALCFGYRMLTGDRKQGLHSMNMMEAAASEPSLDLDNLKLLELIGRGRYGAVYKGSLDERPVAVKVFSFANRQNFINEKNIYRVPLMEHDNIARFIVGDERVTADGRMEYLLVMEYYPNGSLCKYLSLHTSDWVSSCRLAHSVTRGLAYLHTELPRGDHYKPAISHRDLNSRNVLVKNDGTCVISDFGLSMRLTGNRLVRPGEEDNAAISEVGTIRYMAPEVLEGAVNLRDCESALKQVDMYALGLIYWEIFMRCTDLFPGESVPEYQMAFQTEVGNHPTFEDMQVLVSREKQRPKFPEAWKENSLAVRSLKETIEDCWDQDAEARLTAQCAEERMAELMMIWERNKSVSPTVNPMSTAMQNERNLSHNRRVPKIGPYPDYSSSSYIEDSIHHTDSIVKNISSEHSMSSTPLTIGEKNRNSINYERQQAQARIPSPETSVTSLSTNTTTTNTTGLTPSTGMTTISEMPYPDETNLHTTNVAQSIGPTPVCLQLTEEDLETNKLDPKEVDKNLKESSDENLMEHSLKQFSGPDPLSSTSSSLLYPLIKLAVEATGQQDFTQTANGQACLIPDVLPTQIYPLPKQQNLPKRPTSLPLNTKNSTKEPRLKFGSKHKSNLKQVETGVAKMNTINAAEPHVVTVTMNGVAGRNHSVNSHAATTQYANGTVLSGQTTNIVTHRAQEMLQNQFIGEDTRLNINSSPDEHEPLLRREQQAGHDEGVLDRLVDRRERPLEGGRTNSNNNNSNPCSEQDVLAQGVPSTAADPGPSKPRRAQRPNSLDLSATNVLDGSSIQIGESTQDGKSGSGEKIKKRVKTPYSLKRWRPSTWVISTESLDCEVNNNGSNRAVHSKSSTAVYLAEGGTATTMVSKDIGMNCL
Protocol: (§1) The synthesized urea-based derivatives were evaluated in a panel of kinases by differential scanning fluorescence (DSF) to investigate their selectivity profile. A positive ΔT m in the DSF assay indicates stabilization of the protein upon ligand binding in comparison to its apo state, with higher thermal shifts generally correlating with stronger binding. For this purpose, we used our internal kinase selectivity panel (∼90 kinases) along with staurosporine as a positive control. […] This was also reflected in the overall low selectivity score (S) throughout the series, which is determined by the ratio between the number of kinases that are stabilized above 5 °C and the total number of kinases tested (Figure ). Motivated by these findings, we further validated the entire series by orthogonal binding and activity assays to determine the in vitro and cellular potency and selectivity of the developed series in comparison to the selected reference compounds. […]
(§2) was performed as previously described.[1,2] Briefly, recombinant protein kinase domains at a concentration of 2 μM were mixed with 10 μM compound in a buffer containing 20 mM HEPES, […]
(§3) probe (1 µl per mL). Subsequently, temperature-dependent protein unfolding profiles were […]
(§4) emission filters were set to 465 nm and 590 nm, respectively. The temperature was raised with a step rate of 3 °C per minute. […]
(§5) inflection point of the transition curve. […]
(§6) previously.[3] In brief, STK10, STK3, STK4 and SLK were obtained as plasmids cloned in […]
(§7) Plasmids were transfected into
(§8) KD concentration taken from TracerDB (tracerdb.org)[4] were pipetted into white 384-well

[2] = target: T2, BRD4 (BRD4A) (Homo sapiens, UniProt O60885)
T2 construct: purchased in-house DSF kinase panel (SGC-style construct names; the trailing letter is the construct ID)
Protocol: as §1, §2, §3, §4, §5, §6, §7, §8

[3] = target: T3, CHEK2A (Homo sapiens, UniProt O96017)
T3 construct: purchased in-house DSF kinase panel (SGC-style construct names; the trailing letter is the construct ID)
Protocol: as §1, §2, §3, §4, §5, §6, §7, §8

[4] = target: T4, CLK3A (Homo sapiens, UniProt P49761)
T4 construct: purchased in-house DSF kinase panel (SGC-style construct names; the trailing letter is the construct ID)
Protocol: as §1, §2, §3, §4, §5, §6, §7, §8

[5] = target: T5, MAP2K4A (Homo sapiens, UniProt P45985)
T5 construct: purchased in-house DSF kinase panel (SGC-style construct names; the trailing letter is the construct ID)
T5 sequence (P45985 102-367): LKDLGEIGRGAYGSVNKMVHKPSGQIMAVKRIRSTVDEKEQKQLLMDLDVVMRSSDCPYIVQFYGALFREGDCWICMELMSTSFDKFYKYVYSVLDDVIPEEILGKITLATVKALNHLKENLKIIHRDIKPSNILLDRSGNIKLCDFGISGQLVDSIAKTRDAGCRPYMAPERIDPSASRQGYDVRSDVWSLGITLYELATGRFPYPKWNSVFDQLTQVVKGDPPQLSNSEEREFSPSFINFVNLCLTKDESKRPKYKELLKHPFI
Protocol: as §1, §2, §3, §4, §5, §6, §7, §8

[6] = target: T6, PAK1A (Homo sapiens, UniProt Q13153)
T6 construct: purchased in-house DSF kinase panel (SGC-style construct names; the trailing letter is the construct ID)
Protocol: as §1, §2, §3, §4, §5, §6, §7, §8

[7] = target: T7, PIM3A (Homo sapiens, UniProt Q86V86)
T7 construct: purchased in-house DSF kinase panel (SGC-style construct names; the trailing letter is the construct ID)
Protocol: as §1, §2, §3, §4, §5, §6, §7, §8

[8] = target: T8, SRCA (Homo sapiens, UniProt P12931)
T8 construct: purchased in-house DSF kinase panel (SGC-style construct names; the trailing letter is the construct ID)
Protocol: as §1, §2, §3, §4, §5, §6, §7, §8

[9] = target: T9, TTKA (Homo sapiens, UniProt P33981)
T9 construct: purchased in-house DSF kinase panel (SGC-style construct names; the trailing letter is the construct ID)
T9 sequence (P33981 519-808): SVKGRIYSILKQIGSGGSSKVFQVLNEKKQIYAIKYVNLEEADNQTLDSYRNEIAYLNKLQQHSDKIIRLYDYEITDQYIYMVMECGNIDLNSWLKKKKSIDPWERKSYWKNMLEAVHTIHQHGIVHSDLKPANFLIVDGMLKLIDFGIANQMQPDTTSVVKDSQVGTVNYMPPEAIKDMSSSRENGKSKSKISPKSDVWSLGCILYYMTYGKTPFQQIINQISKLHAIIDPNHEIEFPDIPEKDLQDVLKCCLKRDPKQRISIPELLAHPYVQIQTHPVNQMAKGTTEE
Protocol: as §1, §2, §3, §4, §5, §6, §7, §8

[10] = target: T10, ULK1A (Homo sapiens, UniProt O75385)
T10 construct: purchased in-house DSF kinase panel (SGC-style construct names; the trailing letter is the construct ID)
T10 sequence (O75385 1-283): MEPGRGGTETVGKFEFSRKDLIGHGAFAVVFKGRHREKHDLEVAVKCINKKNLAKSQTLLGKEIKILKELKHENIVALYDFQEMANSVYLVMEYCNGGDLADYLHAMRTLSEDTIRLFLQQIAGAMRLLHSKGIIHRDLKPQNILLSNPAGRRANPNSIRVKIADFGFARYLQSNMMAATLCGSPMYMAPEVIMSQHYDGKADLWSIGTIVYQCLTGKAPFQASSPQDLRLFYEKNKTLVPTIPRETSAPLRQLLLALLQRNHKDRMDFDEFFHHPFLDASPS
Protocol: as §1, §2, §3, §4, §5, §6, §7, §8

T3 sequence (O96017 210-531): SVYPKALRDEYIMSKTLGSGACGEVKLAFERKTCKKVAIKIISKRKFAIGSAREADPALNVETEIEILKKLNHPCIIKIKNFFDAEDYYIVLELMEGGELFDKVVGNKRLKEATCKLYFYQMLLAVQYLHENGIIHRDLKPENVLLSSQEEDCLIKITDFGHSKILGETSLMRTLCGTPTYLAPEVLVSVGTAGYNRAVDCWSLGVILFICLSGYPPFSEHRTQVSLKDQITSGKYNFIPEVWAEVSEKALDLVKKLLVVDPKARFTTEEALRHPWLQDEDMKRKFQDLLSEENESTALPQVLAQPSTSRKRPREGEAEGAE
T6 sequence (Q13153 249-545): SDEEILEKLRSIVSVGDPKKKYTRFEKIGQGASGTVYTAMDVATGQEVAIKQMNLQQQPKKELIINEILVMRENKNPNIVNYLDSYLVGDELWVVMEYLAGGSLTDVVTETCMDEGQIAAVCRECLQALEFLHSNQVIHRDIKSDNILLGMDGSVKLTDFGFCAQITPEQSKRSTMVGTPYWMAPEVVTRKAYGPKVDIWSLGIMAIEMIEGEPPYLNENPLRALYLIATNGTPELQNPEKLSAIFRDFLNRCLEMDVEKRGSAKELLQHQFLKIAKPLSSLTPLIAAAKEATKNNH
T4 sequence (P49761 127-484): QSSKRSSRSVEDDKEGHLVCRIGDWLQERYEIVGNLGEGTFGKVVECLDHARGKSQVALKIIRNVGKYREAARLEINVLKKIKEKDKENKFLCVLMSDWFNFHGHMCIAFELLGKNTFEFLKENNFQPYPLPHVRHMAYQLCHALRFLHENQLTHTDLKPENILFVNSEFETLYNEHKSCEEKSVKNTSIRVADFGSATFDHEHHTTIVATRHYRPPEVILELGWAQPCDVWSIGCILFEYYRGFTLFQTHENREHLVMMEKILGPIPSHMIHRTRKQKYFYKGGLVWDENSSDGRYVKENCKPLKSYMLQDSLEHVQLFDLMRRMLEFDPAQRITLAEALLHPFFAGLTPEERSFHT
T8 sequence (P12931 254-536): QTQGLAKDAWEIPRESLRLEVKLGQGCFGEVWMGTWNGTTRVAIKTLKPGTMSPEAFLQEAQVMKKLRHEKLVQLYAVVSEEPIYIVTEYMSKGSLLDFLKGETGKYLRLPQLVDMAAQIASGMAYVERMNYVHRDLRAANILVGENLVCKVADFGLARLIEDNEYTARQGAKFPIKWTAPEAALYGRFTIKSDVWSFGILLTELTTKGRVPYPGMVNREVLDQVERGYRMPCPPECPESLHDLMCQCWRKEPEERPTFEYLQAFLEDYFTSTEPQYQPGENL

| Compound | ΔTm at 10 µM [1] | ΔTm at 10 µM [2] | ΔTm at 10 µM [3] | ΔTm at 10 µM [4] | ΔTm at 10 µM [5] | ΔTm at 10 µM [6] | ΔTm at 10 µM [7] | ΔTm at 10 µM [8] | ΔTm at 10 µM [9] | ΔTm at 10 µM [10] |
| --- | --- | --- | --- | --- | --- | --- | --- | --- | --- | --- |
| O=C(NCc1ccccc1)Nc1ccc2cc1OCCOCCNc1ccn3ncc-2c3n1 [compound 16] | 4.4 °C | 0.7 °C | 6.5 °C | 0.3 °C | 5.2 °C | 0.1 °C | 2.4 °C | 2.5 °C | 1.5 °C | 0.6 °C |
| O=C(NCc1ccccc1Cl)Nc1ccc2cc1OCCOCCNc1ccn3ncc-2c3n1 [compound 17] | 2.6 °C | 1.3 °C | 5.3 °C | 0.1 °C | 5 °C | 0.6 °C | 2.4 °C | 1.8 °C | 1.8 °C | 0.3 °C |
| O=C(NCc1cccc(Cl)c1)Nc1ccc2cc1OCCOCCNc1ccn3ncc-2c3n1 [compound 18] | 2.9 °C | 1.5 °C | 3.6 °C | 0.3 °C | 4.1 °C | 0.7 °C | 3 °C | 2.6 °C | 2.2 °C | 0.3 °C |
| O=C(NCc1ccc(Cl)cc1)Nc1ccc2cc1OCCOCCNc1ccn3ncc-2c3n1 [compound 19] | 2.3 °C | 1 °C | 4.5 °C | 0.4 °C | 5.7 °C | 0.9 °C | 2.4 °C | 2.1 °C | 1.4 °C | 0.4 °C |
| O=C(NCc1ccc(Cl)cc1Cl)Nc1ccc2cc1OCCOCCNc1ccn3ncc-2c3n1 [compound 20] | 1.1 °C | 1.8 °C | 3.6 °C | 0.3 °C | 3.9 °C | 2.5 °C | 3.3 °C | 1.2 °C | 1.2 °C | 0.6 °C |
| O=C(NCc1ccc(Cl)cc1F)Nc1ccc2cc1OCCOCCNc1ccn3ncc-2c3n1 [compound 21] | 1.8 °C | 2 °C | 5 °C | 0.6 °C | 5.4 °C | 1 °C | 3.9 °C | 2.6 °C | 1.8 °C | 0.2 °C |
| Cc1cc(Cl)ccc1CNC(=O)Nc1ccc2cc1OCCOCCNc1ccn3ncc-2c3n1 [compound 23] | 1.5 °C | 2 °C | 5.7 °C | 0.4 °C | 4.8 °C | 2 °C | 2.2 °C | 1.5 °C | 1.8 °C | 0.3 °C |
| Cc1cc(Br)ccc1CNC(=O)Nc1ccc2cc1OCCOCCNc1ccn3ncc-2c3n1 [compound 24] | 2.3 °C | 1.4 °C | 8.6 °C | 0.2 °C | 3.2 °C | 1.1 °C | 2.8 °C | 1.7 °C | 2.6 °C | 0 °C |
| Cc1ccc(F)cc1CNC(=O)Nc1ccc2cc1OCCOCCNc1ccn3ncc-2c3n1 [compound 26] | 3.4 °C | 0.5 °C | 7.2 °C | 0.1 °C | 3.2 °C | 0.7 °C | 4 °C | 2.2 °C | 1.9 °C | 0.1 °C |
| O=C(NCc1ccccc1C(F)(F)F)Nc1ccc2cc1OCCOCCNc1ccn3ncc-2c3n1 [compound 27] | 2.8 °C | 1.8 °C | 9.9 °C | 0.2 °C | 5.1 °C | 1.5 °C | 4.6 °C | 2.5 °C | 3.5 °C | 0.4 °C |
| O=C(NCc1ccc(C(F)(F)F)cc1)Nc1ccc2cc1OCCOCCNc1ccn3ncc-2c3n1 [compound 28] | 3.2 °C | 2.1 °C | 7.7 °C | 0.4 °C | 5 °C | 1.8 °C | 4.3 °C | 2.3 °C | 3.1 °C | 0.6 °C |
